Results published in patent US10519134B2, “Pyrazole compounds and methods of making and using same” (Lundbeck La Jolla Research Center, Inc., priority 2015, dated 2019).

How the values were obtained:
FAAH = biological target: T1, FAAH (Mus musculus, UniProt O08914); assay: In vitro competitive activity-based protein profiling (mouse), FAAH gel band; assay type: biochemical; conditions: for inhibition at 1 µM: read-out: FAAH % inh. 1 μM; for IC50: mouse
T1 construct: Proteomes (mouse brain membrane fraction or cell lysates); from tissue; host or cells: mouse brain membrane fraction (or cell lysates)
T1 sequence (O08914 1-579): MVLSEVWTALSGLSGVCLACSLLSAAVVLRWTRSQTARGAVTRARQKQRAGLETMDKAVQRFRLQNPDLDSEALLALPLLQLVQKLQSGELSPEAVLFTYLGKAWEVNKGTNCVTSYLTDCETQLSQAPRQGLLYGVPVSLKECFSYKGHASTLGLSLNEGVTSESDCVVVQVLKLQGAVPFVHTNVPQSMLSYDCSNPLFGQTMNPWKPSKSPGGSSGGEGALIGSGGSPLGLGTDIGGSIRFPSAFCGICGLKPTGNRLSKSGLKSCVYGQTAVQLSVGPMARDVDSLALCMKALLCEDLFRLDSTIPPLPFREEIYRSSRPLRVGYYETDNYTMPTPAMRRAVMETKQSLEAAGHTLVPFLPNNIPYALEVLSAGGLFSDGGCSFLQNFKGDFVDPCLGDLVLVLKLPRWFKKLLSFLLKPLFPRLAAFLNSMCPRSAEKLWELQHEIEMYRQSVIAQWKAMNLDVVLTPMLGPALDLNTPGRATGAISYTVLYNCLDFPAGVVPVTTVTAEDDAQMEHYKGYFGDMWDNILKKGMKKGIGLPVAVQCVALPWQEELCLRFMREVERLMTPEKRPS
Method in brief: (§1)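 Mouse brain membrane proteome or cell lysate (1.0 mg/mL protein) preincubated 30 min at 37 °C with varying inhibitor concentrations, then labelled 30 min at 37 °C with FP-Rh or HT-01 probe (50 μM stock). After SDS-PAGE, activity taken from fluorescent intensity of the MAGL and FAAH gel bands.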

MAGL = biological target: T2, MAGL (Mus musculus, UniProt O35678); assay: In vitro competitive activity-based protein profiling (mouse), MAGL gel band; assay type: biochemical; conditions: for inhibition at 1 µM: read-out: MAGL % inh. 1 μM; for IC50: mouse
T2 construct: Proteomes (mouse brain membrane fraction or cell lysates); from tissue; host or cells: mouse brain membrane fraction (or cell lysates)
T2 sequence (O35678 1-303): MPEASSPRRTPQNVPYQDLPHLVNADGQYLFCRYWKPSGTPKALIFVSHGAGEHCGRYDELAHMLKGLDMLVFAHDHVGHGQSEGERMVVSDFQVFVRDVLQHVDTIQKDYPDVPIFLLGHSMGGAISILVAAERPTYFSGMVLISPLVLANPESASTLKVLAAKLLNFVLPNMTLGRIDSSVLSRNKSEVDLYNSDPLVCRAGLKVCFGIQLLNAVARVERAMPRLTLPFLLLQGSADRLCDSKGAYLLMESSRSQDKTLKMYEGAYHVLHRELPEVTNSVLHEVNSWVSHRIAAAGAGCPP
Method in brief: as §1

| inhibition at 1 µM (FAAH) | inhibition at 1 µM (MAGL) | IC50 (FAAH) | IC50 (MAGL) | Compound |
| --- | --- | --- | --- | --- |
| 0 to 25% | ≥ 75% | – | – | CS(=O)(=O)Nc1ccn(C(=O)N2CCN(Cc3ccc(-c4ccccc4)cc3OCc3ccccc3)CC2)n1 [Example 183, N-(1-(4-((3-(benzyloxy)-[1,1′-biphenyl]-4-yl)methyl)piperine-1-carbonyl)-1H-pyrazol-3-yl) methanesulfonamide] |
| 0 to 25% | 25 to 50% | – | – | CC(=O)N1CCN(c2cc(CN3CCN(C(=O)n4ccc(NS(C)(=O)=O)n4)CC3)cc(C(F)(F)F)c2)CC1 [Example 251, N-(1-(4-(3-(4-acetylpiperazin-1-yl)-5-(trifluoromethyl)benzyl)piperazine-1-carbonyl)-1H-pyrazol-3-yl) methanesulfonamide] |
| 0 to 25% | 0 to 25% | – | – | Cc1c(CN2CCCC23CCN(C(=O)n2ccc(NS(C)(=O)=O)n2)CC3)cccc1N1CCOCC1 [Example 226, N-(1-(1-(2-methyl-3-morpholinobenzyl)-1,8-diazaspiro[4.5]decane-8-carbonyl)-1H-pyrazol-3-yl) methanesulfonamide] |
| 0 to 25% | ≥ 75% | 1 to 10 µM | 0.1 to 1 µM | CC(C)C(=O)Nc1ccn(C(=O)N2CCN(Cc3ccc(C(F)(F)F)cc3N3CCCC3)CC2)n1 [Example 263, N-(1-(4-(2-(pyrrolidin-1-yl)-4-(trifluoromethyl)benzyl)piperazine-1-carbonyl)-1H-pyrazol-3-yl)isobutyramide] |
| 0 to 25% | ≥ 75% | – | – | CC(=O)NC1CCN(c2cc(CN3CCN(C(=O)n4ccc(NS(C)(=O)=O)n4)CC3)ccc2C(F)(F)F)CC1 [Example 279, N-(1-(5-((4-(3-(methylsulfonamido)-1H-pyrazole-1-carbonyl)piperazin-1-yl)methyl)-2-(trifluoromethyl)phenyl)piperidin-4-yl)acetamide] |
| 0 to 25% | ≥ 75% | – | – | CC(C)(O)C1CCN(c2cc(CN3CCN(C(=O)n4ccc(NS(C)(=O)=O)n4)CC3)ccc2C(F)(F)F)CC1 [Example 280, N-(1-(4-(3-(4-(2-hydroxypropan-2-yl)piperidin-1-yl)-4-(trifluoromethyl)benzyl)piperazine-1-carbonyl)-1H-pyrazol-3-yl) methanesulfonamide] |
| 0 to 25% | 0 to 25% | – | – | CS(=O)(=O)Nc1ccn(C(=O)N2CCN(Cc3cc(N4CCC(C(=O)O)C4)cc(C(F)(F)F)c3)CC2)n1 (stereo not drawn) [Example 244, 1-(3-((4-(3-(methylsulfonamido)-1H-pyrazole-1-carbonyl)piperazin-1-yl)methyl)-5-(trifluoromethyl)phenyl)pyrrolidine-3-carboxylic acid] |
| 0 to 25% | 0 to 25% | – | – | CS(=O)(=O)Nc1ccn(C(=O)N2CCC3(CCCN3Cc3cc(N4CCC(C(=O)O)CC4)cc(C(F)(F)F)c3)CC2)n1 [Example 246, 1-(3-((8-(3-(methylsulfonamido)-1H-pyrazole-1-carbonyl)-1,8-diazaspiro[4.5]decan-1-yl)methyl)-5-(trifluoromethyl)phenyl) piperidine-4-carboxylic acid] |
| 0 to 25% | 0 to 25% | – | – | CS(=O)(=O)Nc1ccn(C(=O)N2CCC3(CCCN3Cc3ccc(C(F)(F)F)cc3N3CCN(C4CC4)CC3)CC2)n1 [Example 239, N-(1-(1-(2-(4-cyclopropylpiperazin-1-yl)-4-(trifluoromethyl)benzyl)-1,8-diazaspiro[4.5]decane-8-carbonyl)-1H-pyrazol-3-yl) methanesulfonamide] |
| 0 to 25% | ≥ 75% | – | – | CS(=O)(=O)Nc1ccn(C(=O)N2CCN(Cc3ccc(Cl)c(C4CCCC4)c3)CC2)n1 [Example 272, N-(1-(4-(4-chloro-3-cyclopentylbenzyl)piperazine-1-carbonyl)-1H-pyrazol-3-yl) methanesulfonamide] |
| 0 to 25% | 0 to 25% | – | – | CS(=O)(=O)Nc1ccn(C(=O)N2CCN(C(c3ccc(Cl)cc3)c3ccc(Cl)cc3)CC2)n1 [Example 182, N-(1-(4-(bis(4-chlorophenyl)methyl)piperazine-1-carbonyl)-1H-pyrazol-3-yl) methanesulfonamide] |
| 0 to 25% | 0 to 25% | – | – | CS(=O)(=O)Nc1ccn(C(=O)N2CCN(Cc3cc(N4CCC(C(=O)O)CC4)cc(C(F)(F)F)c3)CC2)n1 [Example 242, 1-(3-((4-(3-(methylsulfonamido)-1H-pyrazole-1-carbonyl)piperazin-1-yl)methyl)-5-(trifluoromethyl)phenyl)piperidine-4-carboxylic acid] |

Second part, the molecule before the results:

| Compound | inhibition at 1 µM (FAAH) | inhibition at 1 µM (MAGL) | IC50 (FAAH) | IC50 (MAGL) |
| --- | --- | --- | --- | --- |
| CC(=O)Nc1ccn(C(=O)N2CCC3(CCCN3Cc3ccc(C(F)(F)F)c(C(=O)O)c3)CC2)n1 [Example 108, 5-((8-(3-acetamido-1H-pyrazole-1-carbonyl)-1,8-diazaspiro[4.5]decan-1-yl)methyl)-2-(trifluoromethyl)benzoic Acid] | 0 to 25% | 50 to 75% | – | – |
| CC(C)S(=O)(=O)Nc1ccn(C(=O)N2CCN(Cc3ccc(C(F)(F)F)cc3N3CCCC3)CC2)n1 [Example 134, N-(1-(4-(2-(pyrrolidin-1-yl)-4-(trifluoromethyl)benzyl)piperazine-1-carbonyl)-1H-pyrazol-3-yl)propane-2-sulfonamide] | 0 to 25% | 25 to 50% | 1 to 10 µM | 1 to 10 µM |
| CS(=O)(=O)Nc1ccn(C(=O)N2CCN(Cc3ccc(Cl)cc3N3CCOCC3)CC2)n1 [Example 135, N-(1-(4-(4-chloro-2-morpholinobenzyl)piperazine-1-carbonyl)-1H-pyrazol-3-yl) methanesulfonamide] | 0 to 25% | ≥ 75% | 1 to 10 µM | 0.1 to 1 µM |
| CS(=O)(=O)Nc1ccn(C(=O)N2CCN(Cc3ccc(N4CCOCC4)c(Cl)c3)CC2)n1 [Example 170, N-(1-(4-(3-chloro-4-morpholinobenzyl)piperazine-1-carbonyl)-1H-pyrazol-3-yl) methanesulfonamide] | 0 to 25% | 25 to 50% | – | – |
| Cc1ccc(CN2CCN(C(=O)n3ccc(NS(C)(=O)=O)n3)CC2)c(N2CCOCC2)c1 [Example 147, N-(1-(4-(4-methyl-2-morpholinobenzyl)piperazine-1-carbonyl)-1H-pyrazol-3-yl) methanesulfonamide] | 0 to 25% | ≥ 75% | – | – |
| CS(=O)(=O)Nc1ccn(C(=O)N2CCN(Cc3ccc(C(F)(F)F)c(N4CCCC4)c3)CC2)n1 [Example 153, N-(1-(4-(3-(pyrrolidin-1-yl)-4-(trifluoromethyl)benzyl)piperazine-1-carbonyl)-1H-pyrazol-3-yl) methanesulfonamide] | 0 to 25% | ≥ 75% | – | – |
| CC(=O)Nc1ccn(C(=O)N2CCC3(CCCN3Cc3ccc(C(F)(F)F)cc3N3CCC4(C3)CN(S(C)(=O)=O)C4)CC2)n1 [Example 27, N-(1-(1-(2-(2-(methylsulfonyl)-2,6-diazaspiro[3.4]octan-6-yl)-4-(trifluoromethyl)benzyl)-1,8-diazaspiro[4.5]decane-8-carbonyl)-1H-pyrazol-3-yl)acetamide] | 0 to 25% | ≥ 75% | 1 to 10 µM | ≤ 0.1 µM |
| CC(=O)Nc1ccn(C(=O)N2CCN(Cc3ccc(Cl)cc3N3CCC(F)CC3)CC2)n1 [Example 7, N-(1-(4-(4-chloro-2-(4-fluoropiperidin-1-yl)benzyl)piperazine-1-carbonyl)-1H-pyrazol-3-yl)acetamide] | 0 to 25% | ≥ 75% | 1 to 10 µM | ≤ 0.1 µM |
| CC(=O)Nc1ccn(C(=O)N2CCN(Cc3ccc(C(F)(F)F)cc3OC3CCS(=O)(=O)CC3)CC2)n1 [Example 77, N-(1-(4-(2-((1,1-dioxidotetrahydro-2H-thiopyran-4-yl)oxy)-4-(trifluoromethyl)benzyl)piperazine-1-carbonyl)-1H-pyrazol-3-yl)acetamide] | 0 to 25% | ≥ 75% | – | – |
| CS(=O)(=O)Nc1ccn(C(=O)N2CCC3(CCCN3Cc3cc(N4CCCC4)cc(C(F)(F)F)c3)CC2)n1 [Example 163, N-(1-(1-(3-(pyrrolidin-1-yl)-5-(trifluoromethyl)benzyl)-1,8-diazaspiro[4.5]decane-8-carbonyl)-1H-pyrazol-3-yl) methanesulfonamide] | 0 to 25% | ≥ 75% | – | – |
